The values below are quoted from earlier work in patent US20250231185A1, “Coronavirus T Cell Epitopes, Megapools and Uses Thereof” (La Jolla Institute for Immunology, priority 2021, published 2025).

This data set deals with CD8+ T cells. The settings on record: CD8RE megapool peptides (non-spike SARS-CoV-2 antigens); dominant epitope Yes/No; cited from earlier work.
On to 2969 (VVYRGTTTYK) [compound 2969], for which the Dominant entry is given as “Yes (more dominant epitopes are defined by being recognized by 3 or more donors/different studies)”. With 2970 (VYRGTTTYKL) [compound 2970], the Dominant entry was “Yes (more dominant epitopes are defined by being recognized by 3 or more donors/different studies)”. Consider 2971 (KLNVGDYFV) [compound 2971], for which the Dominant result is on record as “Yes (more dominant epitopes are defined by being recognized by 3 or more donors/different studies)”. As for 2972 (SSNVANYQK) [compound 2972], the Dominant result is “Yes (more dominant epitopes are defined by being recognized by 3 or more donors/different studies)”. For the substance 2973 (VYIGDPAQL) [compound 2973], the Dominant result is recorded as “Yes (more dominant epitopes are defined by being recognized by 3 or more donors/different studies)”. As to 2974 (IVDTVSALV) [compound 2974], the Dominant result was “Yes (more dominant epitopes are defined by being recognized by 3 or more donors/different studies)”. As to 2976 (VLWAHGFEL) [compound 2976], the Dominant result is listed as “Yes (more dominant epitopes are defined by being recognized by 3 or more donors/different studies)”.

Consider 2977 (TYACWHHSI) [compound 2977], for which the Dominant entry is on record as “Yes (more dominant epitopes are defined by being recognized by 3 or more donors/different studies)”. As for 2978 (AIMTRCLAV) [compound 2978], the Dominant entry is listed as “Yes (more dominant epitopes are defined by being recognized by 3 or more donors/different studies)”. Take 2979 (IEYPIIGDEL) [compound 2979]: the Dominant entry is “Yes (more dominant epitopes are defined by being recognized by 3 or more donors/different studies)”. For the substance 2980 (ALLADKFPV) [compound 2980], the Dominant entry is listed as “Yes (more dominant epitopes are defined by being recognized by 3 or more donors/different studies)”. On to 2981 (SYATHSDKF) [compound 2981], for which the Dominant entry was “Yes (more dominant epitopes are defined by being recognized by 3 or more donors/different studies)”. Turning to 2983 (MMISAGFSL) [compound 2983], the Dominant entry is “Yes (more dominant epitopes are defined by being recognized by 3 or more donors/different studies)”. With 2984 (KQFDTYNLW) [compound 2984], the Dominant entry is “Yes (more dominant epitopes are defined by being recognized by 3 or more donors/different studies)”. In the case of 2985 (NLWNTFTRL) [compound 2985], the Dominant result was “Yes (more dominant epitopes are defined by being recognized by 3 or more donors/different studies)”.

Take 2986 (KVDGVDVEL) [compound 2986]: the Dominant result was “Yes (more dominant epitopes are defined by being recognized by 3 or more donors/different studies)”. Turning to 2987 (LLLDDFVEII) [compound 2987], the Dominant result is listed as “Yes (more dominant epitopes are defined by being recognized by 3 or more donors/different studies)”.

2988 (MLWCKDGHV) [compound 2988]: the Dominant entry is “Yes (more dominant epitopes are defined by being recognized by 3 or more donors/different studies)”. For 2989 (GVAMPNLYK) [compound 2989], the Dominant result was “Yes (more dominant epitopes are defined by being recognized by 3 or more donors/different studies)”. For 2990 (KMQRMLLEK) [compound 2990], the Dominant result is listed as “Yes (more dominant epitopes are defined by being recognized by 3 or more donors/different studies)”. Consider 2993 (KTIQPRVEK) [compound 2993], for which the Dominant result was “Yes (more dominant epitopes are defined by being recognized by 3 or more donors/different studies)”. Take 2994 (KLVNKFLAL) [compound 2994]: the Dominant result was “Yes (more dominant epitopes are defined by being recognized by 3 or more donors/different studies)”. As for 2995 (VTNNTFTLK) [compound 2995], the Dominant entry is “Yes (more dominant epitopes are defined by being recognized by 3 or more donors/different studies)”.

Regarding 2996 (FGDDTVIEV) [compound 2996], the Dominant result is reported as “Yes (more dominant epitopes are defined by being recognized by 3 or more donors/different studies)”. Take 2997 (PTDNYITTY) [compound 2997]: the Dominant entry is “Yes (more dominant epitopes are defined by being recognized by 3 or more donors/different studies)”. Consider 2998 (QEILGTVSW) [compound 2998], for which the Dominant result was “Yes (more dominant epitopes are defined by being recognized by 3 or more donors/different studies)”.

2999 (TTDPSFLGRY) [compound 2999]: the Dominant entry is “Yes (more dominant epitopes are defined by being recognized by 3 or more donors/different studies)”. Consider 3000 (YLATALLTL) [compound 3000], for which the Dominant entry is “Yes (more dominant epitopes are defined by being recognized by 3 or more donors/different studies)”. With 3001 (SAPPAQYEL) [compound 3001], the Dominant result was “Yes (more dominant epitopes are defined by being recognized by 3 or more donors/different studies)”.

In the case of 3002 (NYMPYFFTL) [compound 3002], the Dominant result is reported as “Yes (more dominant epitopes are defined by being recognized by 3 or more donors/different studies)”. As to 3003 (ASMPTTIAK) [compound 3003], the Dominant entry is “Yes (more dominant epitopes are defined by being recognized by 3 or more donors/different studies)”. On to 3004 (ILFTRFFYV) [compound 3004], for which the Dominant result is on record as “Yes (more dominant epitopes are defined by being recognized by 3 or more donors/different studies)”. Take 3005 (YIFFASFYY) [compound 3005]: the Dominant entry is reported as “Yes (more dominant epitopes are defined by being recognized by 3 or more donors/different studies)”. As for 3006 (QLMCQPILLL) [compound 3006], the Dominant result was “Yes (more dominant epitopes are defined by being recognized by 3 or more donors/different studies)”. Consider 3007 (STFNVPMEK) [compound 3007], for which the Dominant result is given as “Yes (more dominant epitopes are defined by being recognized by 3 or more donors/different studies)”.

As for 3008 (FLPRVFSAV) [compound 3008], the Dominant entry is “Yes (more dominant epitopes are defined by being recognized by 3 or more donors/different studies)”. With 3009 (FSAVGNICY) [compound 3009], the Dominant entry is recorded as “Yes (more dominant epitopes are defined by being recognized by 3 or more donors/different studies)”. As for 3010 (SLRPDTRYVL) [compound 3010], the Dominant result is “Yes (more dominant epitopes are defined by being recognized by 3 or more donors/different studies)”. Consider 3011 (FLLNKEMYL) [compound 3011], for which the Dominant result is “Yes (more dominant epitopes are defined by being recognized by 3 or more donors/different studies)”. On to 3012 (TSEDMLNPNY) [compound 3012], for which the Dominant entry is recorded as “Yes (more dominant epitopes are defined by being recognized by 3 or more donors/different studies)”.

On to 3013 (TPKYKFVRI) [compound 3013], for which the Dominant result is “Yes (more dominant epitopes are defined by being recognized by 3 or more donors/different studies)”. With 3014 (VRIQPGQTF) [compound 3014], the Dominant entry is “Yes (more dominant epitopes are defined by being recognized by 3 or more donors/different studies)”.

Consider 3015 (FLNGSCGSV) [compound 3015], for which the Dominant result is “Yes (more dominant epitopes are defined by being recognized by 3 or more donors/different studies)”. Consider 3016 (GTDLEGNFY) [compound 3016], for which the Dominant entry is “Yes (more dominant epitopes are defined by being recognized by 3 or more donors/different studies)”. As to 3017 (VLAWLYAAV) [compound 3017], the Dominant entry is “Yes (more dominant epitopes are defined by being recognized by 3 or more donors/different studies)”.

With 3018 (FLNRFTTTL) [compound 3018], the Dominant result is listed as “Yes (more dominant epitopes are defined by being recognized by 3 or more donors/different studies)”. Turning to 3019 (SAFAMMFVK) [compound 3019], the Dominant entry was “Yes (more dominant epitopes are defined by being recognized by 3 or more donors/different studies)”. For 3020 (FLLPSLATV) [compound 3020], the Dominant entry is reported as “Yes (more dominant epitopes are defined by being recognized by 3 or more donors/different studies)”. As for 3021 (MPASWVMRI) [compound 3021], the Dominant result is “Yes (more dominant epitopes are defined by being recognized by 3 or more donors/different studies)”. In the case of 3022 (KLKDCVMYA) [compound 3022], the Dominant result is listed as “Yes (more dominant epitopes are defined by being recognized by 3 or more donors/different studies)”. As to 3023 (SMWALIISV) [compound 3023], the Dominant entry was “Yes (more dominant epitopes are defined by being recognized by 3 or more donors/different studies)”.

As for 3025 (SEFSSLPSY) [compound 3025], the Dominant entry is recorded as “Yes (more dominant epitopes are defined by being recognized by 3 or more donors/different studies)”.

Regarding 3026 (NTCDGTTFTY) [compound 3026], the Dominant entry was “Yes (more dominant epitopes are defined by being recognized by 3 or more donors/different studies)”. As for 3027 (FTYASALWEI) [compound 3027], the Dominant entry is on record as “Yes (more dominant epitopes are defined by being recognized by 3 or more donors/different studies)”. For 3030 (ALRANSAVK) [compound 3030], the Dominant entry is recorded as “Yes (more dominant epitopes are defined by being recognized by 3 or more donors/different studies)”. Turning to 3032 (CTDDNALAYY) [compound 3032], the Dominant result is “Yes (more dominant epitopes are defined by being recognized by 3 or more donors/different studies)”. On to 3033 (YTELEPPCRF) [compound 3033], for which the Dominant entry is on record as “Yes (more dominant epitopes are defined by being recognized by 3 or more donors/different studies)”. On to 3034 (VTDTPKGPK) [compound 3034], for which the Dominant entry was “Yes (more dominant epitopes are defined by being recognized by 3 or more donors/different studies)”.

Take 3035 (MDLFMRIFTI) [compound 3035]: the Dominant entry is “Yes (more dominant epitopes are defined by being recognized by 3 or more donors/different studies)”. 3036 (FVRATATIPI) [compound 3036]: the Dominant result is “Yes (more dominant epitopes are defined by being recognized by 3 or more donors/different studies)”.
